Results reported in patent US5574166A, “Crystalline form of 2-(2-hydroxy-3-α-cumyl-5-tert-octylphenyl)-2H-benzotriazole” (Ciba-Geigy Corporation, priority 1995, dated 1996).
“Also recorded” adds a separate entry of the source.

Experiments:
[1] = Photostability of UV absorber in gelatine layer on polyester base (Example 21); format: physicochemical; conditions: for photostability (in words): 30-120 kJ/cm^2 exposure; for Dmax (maximum density in the range 330-380 nm): before exposure, gelatine layer
Procedure: The amount of UV absorber shown in the table below is dissolved in 2 ml of ethyl acetate. 1 ml of this solution is mixed with 9 ml of an aqueous gelatine solution [comprising 27.6 g/l of gelatine and 6.8 g/l of an 8% aqueous solution of 4,8-diisobutylnaphthalene-2-sulfonic acid (sodium salt) as wetting agent]. This mixture is emulsified for 3 minutes by means of ultrasound. 7.5 ml of this UV absorber emulsion are mixed with 4.5 ml of an aqueous curing agent solution (comprising 0.24% of 2-hydroxy-4,6-dichloro-s-triazine, potassium salt). 8 ml of this emulsion are poured onto a polyester base (13×18 cm). The casting is cured for 7 days at room temperature. A UV spectrometer is then used to determine the values for the maximum density in the range from 330-380 nm. The sample is then exposed in an Arias exposure unit with a total of 30, 60, 90 and 120 kJ/cm^2, the maximum density is remeasured, and the difference (-ΔD in %) between the corresponding values is calculated.

[2] = Solubility of benzotriazole UV absorbers in organic solvents (percent solids of saturated filtrate, ASTM D 2369-81); conditions: for Solubility in organic solvents (in words): organic / coatings solvents
Procedure: The relative solubility of three different benzotriazole UV absorbers in a five typical organic solvents is measured by dissolving the benzotriazole UV absorber in 50-100 mL of five different solvents till the solutions become supersaturated. This is seen when the benzotriazole begins to settle to the bottom of the test flask. The supersaturated solutions are allowed to remain undisturbed overnight. Then, the top layer is decanted and filtered. […] The higher the percent solids found indicates a more soluble benzotriazole.

[3] = Handling properties and storage stability of the solid form; format: physicochemical; conditions: apparent density
[4] = Light stabilization effectiveness (general statement); conditions: versus 2-[2-hydroxy-3,5-di(α-cumyl)phenyl]-2H-benzotriazole
[5] = Volatility of UV absorber; format: physicochemical; conditions: long-term coating uses
[6] = EXXATE ® 600 (hexyl acetate from Exxon)
[7] = PM acetate (1-methoxy-2-propyl acetate)
[8] = PM solvent (1-methoxy-2-propanol)

| Structure (SMILES) | photostability (in words) [1] | ΔD in % ([1]; 30 KJ exposure (kJ/cm^2)) | ΔD in % ([1]; 60 KJ exposure (kJ/cm^2)) | ΔD in % ([1]; 90 KJ exposure (kJ/cm^2)) | ΔD in % ([1]; 120 KJ exposure (kJ/cm^2)) | Dmax (maximum density in the range 330-380 nm) [1] | Solubility in organic solvents (in words) [2] | Solubility [2, 6] | Solubility [2, 7] | Solubility ([2]; butyl acetate) | Solubility ([2]; methyl amyl ketone) | Solubility ([2]; xylene) | volatility [5] | also measured |
| --- | --- | --- | --- | --- | --- | --- | --- | --- | --- | --- | --- | --- | --- | --- |
| CCC(C)c1cc(C(C)(C)C)cc(-n2nc3ccccc3n2)c1O (stereo not drawn) [A, 2(2-hydroxy-3-sec-butyl-5-tert-butylphenyl)-2H-benzotriazole] | not as photostable as the UV absorbers D, E and F | 4% | 8% | 16% | 25% | 2.0 |  |  |  |  |  |  |  |  |
| CCCCCCCCCCCCc1cc(C)cc(-n2nc3ccccc3n2)c1O [B, 2(2-hydroxy-3-dodecyl-5-methylphenyl)-2H-benzotriazole] | not as photostable as the UV absorbers D, E and F | 5% | 10% | 17% | 25% | 2.1 |  |  |  |  |  |  |  |  |
| CC(C)(C)CC(C)(C)c1cc(-n2nc3ccccc3n2)c(O)c(C(C)(C)c2ccccc2)c1 [E, 2(2-hydroxy-3-cumyl-5-tert-octylphenyl)-2H-benzotriazole] |  | 3% | 4% | 5% | 7% | 2.0 | do not suffer from the solubility limitations of UV absorber D in non-HAPS solvents |  |  |  |  |  |  |  |
| CC(C)(C)CC(C)(C)c1cc(-n2nc3ccccc3n2)c(O)c(C(C)(C)c2ccccc2)c1 [Example 2, 2-(2-Hydroxy-3-α-cumyl-5-tert-octylphenyl)-2H-benzotriazole] |  |  |  |  |  |  |  |  |  |  |  |  |  | flowability, meterability and storage stability ([3]; listed as Example 18): poor flowability, meterability and storage stability |
| CC(C)(C)CC(C)(C)c1cc(-n2nc3ccccc3n2)c(O)c(C(C)(C)c2ccccc2)c1 [Example 3, 2-(2-hydroxy-3-α-cumyl-5-tert-octylphenyl)-2H-benzotriazole] |  |  |  |  |  |  | essentially the same solubility parameters in the various solvents as seen in Example 13 for the new crystalline modification |  |  |  |  |  |  | Ease and rate of dissolution ([2]; non-HAPS solvents): dissolves much more easily and rapidly in the non-HAPS solvents; Solubility in organic solvents (in words) ([2]; listed as amorphous modification): excellent solubility characteristics |
| CCCCCCCCCc1cc(-n2nc3ccccc3n2)c(O)c(C(C)(C)c2ccccc2)c1 [Example 4, 2-(2-Hydroxy-3-α-cumyl-5-nonylphenyl)-2H-benzotriazole] |  |  |  |  |  |  |  | > 50 grams/100 solvent | > 50 grams/100 solvent | > 50 grams/100 solvent | > 50 grams/100 solvent | > 50 grams/100 solvent |  | Solubility ([2]; acetone): > 50 grams/100 solvent |
| CC(C)(C)CC(C)(C)c1cc(-n2nc3ccccc3n2)c(O)c(C(C)(C)c2ccccc2)c1 [Example 7, 2-(2-hydroxy-3-α-cumyl-5-tert-octylphenyl)-2H-benzotriazole] |  |  |  |  |  |  | soluble in environmentally friendly solvents | 22 grams/100 solvent | 14 grams/100 solvent | 33 grams/100 solvent | 33 grams/100 solvent | 76 grams/100 solvent | same low volatility | Solubility [2, 8]: 4 grams/100 solvent; flowability, meterability and storage stability ([3]; listed as compound of formula I): acceptable properties in respect to handling, apparent density, flowability, meterability and storage stability; light stabilization effectiveness [4]: superior light stabilization effectiveness |
| CCCCCCCCCCCCc1cc(-n2nc3ccccc3n2)c(O)c(C(C)(C)c2ccccc2)c1 [Example 10, 2-(2-Hydroxy-3-α-cumyl-5-dodecylphenyl)-2H-benzotriazole] |  | 2% | 4% | 5% | 8% | 1.9 | do not suffer from the solubility limitations of UV absorber D in non-HAPS solvents | > 50 grams/100 solvent | > 50 grams/100 solvent | > 50 grams/100 solvent | > 50 grams/100 solvent | > 50 grams/100 solvent |  | Solubility ([2]; acetone): > 50 grams/100 solvent |
| CC(C)(c1ccccc1)c1cc(-n2nc3ccccc3n2)c(O)c(C(C)(C)c2ccccc2)c1 [UV absorber A, 2(2-hydroxy-3,5-di-cumylphenyl)-2H-benzotriazole] | no more stable than are UV absorbers E and F | 0% | 5% |  |  | 1.9 |  | 4 grams/100 solvent | 3 grams/100 solvent | 6 grams/100 solvent | 4 grams/100 solvent | 14 grams/100 solvent | excellent non-volatility | Solubility in organic solvents (in words) ([2]; listed as 2-(2-hydroxy-3,5-di-α-cumylphenyl)-2H-benzotriazole): relatively insoluble; also recorded: sparingly soluble; Solubility in organic solvents (in words) ([2]; listed as 2-[2-hydroxy-3,5-di(α-cumyl)phenyl]-2H-benzotriazole): sparingly soluble in environmentally more friendly solvents; solubility in toluene or xylene ([2]; toluene or xylene): about 14 % by weight; soluble at level in xylene ([2]; xylene): ~14 % (by weight) |
| CCC(C)(C)c1cc(-n2nc3ccccc3n2)c(O)c(C(C)(C)CC)c1 [UV absorber B] | not as photostable as the UV absorbers D, E and F | 4% | 7% | 12% | 24% | 2.1 | clearly quite soluble even in the solvents other then xylene | 24 grams/100 solvent | 10 grams/100 solvent | 27 grams/100 solvent | 24 grams/100 solvent | 54 grams/100 solvent | too volatile for long term coating uses | Solubility [2, 8]: 4 grams/100 solvent |
